Assay results as given in the supplement of paper PMC10307832.

How the values were obtained:
Experiment in all cases: relative viability (nuclei count vs DMSO), 5 days (fraction); higher = more cells survive
Sulindac + Luminespib = compound: CC1=C(CC(=O)O)c2cc(F)ccc2/C1=C\c1ccc([S+](C)[O-])cc1 [Sulindac] + CCNC(=O)c1noc(-c2cc(C(C)C)c(O)cc2O)c1-c1ccc(CN2CCOCC2)cc1 [Luminespib] (partner 0.01 µM)
In short: (§1)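 For relative viability, nuclei counts in treated wells were divided by those in vehicle wells. Lung cancer cell lines had been pin-tool dosed in 1536-well plates the day after seeding and cultured for 5 days, then fixed and stained in one step (final 0.05% Triton X-100, 1% formaldehyde, 1 ug/ml Hoechst) and imaged at 4×. Doses were one drug alone or a fixed anchor-drug dose plus five library-drug doses (not always all listed) in √10 steps, and values are duplicate-plate medians.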

[1] = compound: CN[C@@H]1C[C@H]2O[C@@](C)([C@@H]1OC)n1c3ccccc3c3c4c(c5c6ccccc6n2c5c31)C(=O)NC4 [Staurosporine] + Cc1cc(Nc2cc(N3CCN(C)CC3)nc(Sc3ccc(NC(=O)C4CC4)cc3)n2)n[nH]1 [Tozasertib] (partner 0.1 µM)
In short: as §1

[2] = compound: CN[C@@H]1C[C@H]2O[C@@](C)([C@@H]1OC)n1c3ccccc3c3c4c(c5c6ccccc6n2c5c31)C(=O)NC4 [Staurosporine] + N=C(N)NC(=N)NCCc1ccccc1 [Phenformin] (partner 250 µM)
In short: as §1

Staurosporine + AZD7762 = compound: CN[C@@H]1C[C@H]2O[C@@](C)([C@@H]1OC)n1c3ccccc3c3c4c(c5c6ccccc6n2c5c31)C(=O)NC4 [Staurosporine] + NC(=O)Nc1cc(-c2cccc(F)c2)sc1C(=O)N[C@H]1CCCNC1 [AZD7762] (partner 0.2 µM)
In short: as §1

NCI-H596
relative viability (Sulindac + Luminespib; first compound 0.08 µM): 1.08
relative viability (Sulindac + Luminespib; first compound 0.253 µM): 0.99
relative viability (Sulindac + Luminespib; first compound 0.8 µM): 0.915
relative viability (Sulindac + Luminespib; first compound 2.53 µM): 1
relative viability (Sulindac + Luminespib; first compound 8 µM): 0.993
relative viability ([1]; first compound 0.005 µM): 1.02
relative viability ([1]; first compound 0.01581 µM): 0.735
relative viability ([1]; first compound 0.05 µM): 0.572
relative viability ([1]; first compound 0.1581 µM): 0.36
relative viability ([1]; first compound 0.5 µM): 0.288
relative viability ([2]; first compound 0.005 µM): 0.797
relative viability ([2]; first compound 0.01581 µM): 0.323
relative viability ([2]; first compound 0.05 µM): 0.383
relative viability ([2]; first compound 0.1581 µM): 0.249
relative viability ([2]; first compound 0.5 µM): 0.194
relative viability (Staurosporine + AZD7762; first compound 0.005 µM): 1.08
relative viability (Staurosporine + AZD7762; first compound 0.01581 µM): 0.769
relative viability (Staurosporine + AZD7762; first compound 0.05 µM): 0.471
relative viability (Staurosporine + AZD7762; first compound 0.1581 µM): 0.28
relative viability (Staurosporine + AZD7762; first compound 0.5 µM): 0.303

NCI-H647
relative viability (Sulindac + Luminespib; first compound 0.08 µM): 0.187
relative viability (Sulindac + Luminespib; first compound 0.253 µM): 0.125
relative viability (Sulindac + Luminespib; first compound 0.8 µM): 0.169
relative viability (Sulindac + Luminespib; first compound 2.53 µM): 0.122
relative viability (Sulindac + Luminespib; first compound 8 µM): 0.134
relative viability ([1]; first compound 0.005 µM): 0.201
relative viability ([1]; first compound 0.01581 µM): 0.157
relative viability ([1]; first compound 0.05 µM): 0.0667
relative viability ([1]; first compound 0.1581 µM): 0.0489
relative viability ([1]; first compound 0.5 µM): 0.061
relative viability ([2]; first compound 0.005 µM): 0.236
relative viability ([2]; first compound 0.01581 µM): 0.0676
relative viability ([2]; first compound 0.05 µM): 0.0846
relative viability ([2]; first compound 0.1581 µM): 0.0492
relative viability ([2]; first compound 0.5 µM): 0.0636
relative viability (Staurosporine + AZD7762; first compound 0.005 µM): 0.296
relative viability (Staurosporine + AZD7762; first compound 0.01581 µM): 0.102
relative viability (Staurosporine + AZD7762; first compound 0.05 µM): 0.121
relative viability (Staurosporine + AZD7762; first compound 0.1581 µM): 0.0587
relative viability (Staurosporine + AZD7762; first compound 0.5 µM): 0.05

NCI-H650
relative viability (Sulindac + Luminespib; first compound 0.08 µM): 0.796
relative viability (Sulindac + Luminespib; first compound 0.253 µM): 0.87
relative viability (Sulindac + Luminespib; first compound 0.8 µM): 0.659
relative viability (Sulindac + Luminespib; first compound 2.53 µM): 0.644
relative viability (Sulindac + Luminespib; first compound 8 µM): 0.935
relative viability ([1]; first compound 0.005 µM): 0.451
relative viability ([1]; first compound 0.01581 µM): 0.238
relative viability ([1]; first compound 0.05 µM): 0.278
relative viability ([1]; first compound 0.1581 µM): 0.193
relative viability ([1]; first compound 0.5 µM): 0.181
relative viability ([2]; first compound 0.005 µM): 0.285
relative viability ([2]; first compound 0.01581 µM): 0.257
relative viability ([2]; first compound 0.05 µM): 0.26
relative viability ([2]; first compound 0.1581 µM): 0.189
relative viability ([2]; first compound 0.5 µM): 0.164
relative viability (Staurosporine + AZD7762; first compound 0.005 µM): 0.432
relative viability (Staurosporine + AZD7762; first compound 0.01581 µM): 0.304
relative viability (Staurosporine + AZD7762; first compound 0.05 µM): 0.273
relative viability (Staurosporine + AZD7762; first compound 0.1581 µM): 0.227
relative viability (Staurosporine + AZD7762; first compound 0.5 µM): 0.306

NCI-H727
relative viability (Sulindac + Luminespib; first compound 0.08 µM): 0.223
relative viability (Sulindac + Luminespib; first compound 0.253 µM): 0.338
relative viability (Sulindac + Luminespib; first compound 2.53 µM): 0.299
relative viability (Sulindac + Luminespib; first compound 8 µM): 0.443
relative viability ([1]; first compound 0.005 µM): 0.562
relative viability ([1]; first compound 0.01581 µM): 0.429
relative viability ([1]; first compound 0.05 µM): 0.303
relative viability ([1]; first compound 0.1581 µM): 0.318
relative viability ([1]; first compound 0.5 µM): 0.297
relative viability ([2]; first compound 0.005 µM): 0.404
relative viability ([2]; first compound 0.01581 µM): 0.319
relative viability ([2]; first compound 0.05 µM): 0.379
relative viability ([2]; first compound 0.1581 µM): 0.219
relative viability ([2]; first compound 0.5 µM): 0.146
relative viability (Staurosporine + AZD7762; first compound 0.005 µM): 0.622
relative viability (Staurosporine + AZD7762; first compound 0.01581 µM): 0.412
relative viability (Staurosporine + AZD7762; first compound 0.05 µM): 0.55
relative viability (Staurosporine + AZD7762; first compound 0.1581 µM): 0.466
relative viability (Staurosporine + AZD7762; first compound 0.5 µM): 0.461

NCI-H838
relative viability (Sulindac + Luminespib; first compound 0.08 µM): 0.231
relative viability (Sulindac + Luminespib; first compound 0.253 µM): 0.277
relative viability (Sulindac + Luminespib; first compound 0.8 µM): 0.243
relative viability (Sulindac + Luminespib; first compound 2.53 µM): 0.211
relative viability (Sulindac + Luminespib; first compound 8 µM): 0.307
relative viability ([1]; first compound 0.005 µM): 0.218
relative viability ([1]; first compound 0.01581 µM): 0.156
relative viability ([1]; first compound 0.05 µM): 0.179
relative viability ([1]; first compound 0.1581 µM): 0.164
relative viability ([1]; first compound 0.5 µM): 0.143
relative viability ([2]; first compound 0.005 µM): 0.208
relative viability ([2]; first compound 0.01581 µM): 0.139
relative viability ([2]; first compound 0.05 µM): 0.136
relative viability ([2]; first compound 0.1581 µM): 0.125
relative viability ([2]; first compound 0.5 µM): 0.0931
relative viability (Staurosporine + AZD7762; first compound 0.005 µM): 0.776
relative viability (Staurosporine + AZD7762; first compound 0.01581 µM): 0.644
relative viability (Staurosporine + AZD7762; first compound 0.05 µM): 0.643
relative viability (Staurosporine + AZD7762; first compound 0.1581 µM): 0.693
relative viability (Staurosporine + AZD7762; first compound 0.5 µM): 0.675

NCI-H1355
relative viability (Sulindac + Luminespib; first compound 0.08 µM): 0.612
relative viability (Sulindac + Luminespib; first compound 0.253 µM): 0.668
relative viability (Sulindac + Luminespib; first compound 2.53 µM): 0.601
relative viability (Sulindac + Luminespib; first compound 8 µM): 0.702
relative viability ([1]; first compound 0.005 µM): 0.577
relative viability ([1]; first compound 0.01581 µM): 0.286
relative viability ([1]; first compound 0.05 µM): 0.252
relative viability ([1]; first compound 0.1581 µM): 0.188
relative viability ([1]; first compound 0.5 µM): 0.151
relative viability ([2]; first compound 0.005 µM): 0.369
relative viability ([2]; first compound 0.01581 µM): 0.165
relative viability ([2]; first compound 0.05 µM): 0.255
relative viability ([2]; first compound 0.1581 µM): 0.168
relative viability ([2]; first compound 0.5 µM): 0.162
relative viability (Staurosporine + AZD7762; first compound 0.005 µM): 0.713
relative viability (Staurosporine + AZD7762; first compound 0.01581 µM): 0.294
relative viability (Staurosporine + AZD7762; first compound 0.05 µM): 0.237
relative viability (Staurosporine + AZD7762; first compound 0.1581 µM): 0.214
relative viability (Staurosporine + AZD7762; first compound 0.5 µM): 0.148

NCI-H1395
relative viability (Sulindac + Luminespib; first compound 0.08 µM): 0.713
relative viability (Sulindac + Luminespib; first compound 0.253 µM): 0.68
relative viability (Sulindac + Luminespib; first compound 0.8 µM): 0.611
relative viability (Sulindac + Luminespib; first compound 2.53 µM): 0.709
relative viability (Sulindac + Luminespib; first compound 8 µM): 0.643
relative viability ([1]; first compound 0.005 µM): 0.705
relative viability ([1]; first compound 0.01581 µM): 0.614
relative viability ([1]; first compound 0.05 µM): 0.37
relative viability ([1]; first compound 0.1581 µM): 0.331
relative viability ([1]; first compound 0.5 µM): 0.265
relative viability ([2]; first compound 0.005 µM): 0.462
relative viability ([2]; first compound 0.01581 µM): 0.292
relative viability ([2]; first compound 0.05 µM): 0.382
relative viability ([2]; first compound 0.1581 µM): 0.301
relative viability ([2]; first compound 0.5 µM): 0.241
relative viability (Staurosporine + AZD7762; first compound 0.005 µM): 0.38
relative viability (Staurosporine + AZD7762; first compound 0.01581 µM): 0.305
relative viability (Staurosporine + AZD7762; first compound 0.05 µM): 0.34
relative viability (Staurosporine + AZD7762; first compound 0.1581 µM): 0.303
relative viability (Staurosporine + AZD7762; first compound 0.5 µM): 0.302

NCI-H1437
relative viability (Sulindac + Luminespib; first compound 0.08 µM): 1.33
relative viability (Sulindac + Luminespib; first compound 0.253 µM): 1.1
relative viability (Sulindac + Luminespib; first compound 0.8 µM): 0.912
relative viability (Sulindac + Luminespib; first compound 2.53 µM): 1.25
relative viability (Sulindac + Luminespib; first compound 8 µM): 1.25
relative viability ([1]; first compound 0.005 µM): 0.402
relative viability ([1]; first compound 0.05 µM): 0.381
relative viability ([1]; first compound 0.1581 µM): 0.325
relative viability ([1]; first compound 0.5 µM): 0.199
relative viability ([2]; first compound 0.005 µM): 0.247
relative viability ([2]; first compound 0.05 µM): 0.187
relative viability ([2]; first compound 0.1581 µM): 0.11
relative viability ([2]; first compound 0.5 µM): 0.118
relative viability (Staurosporine + AZD7762; first compound 0.005 µM): 1.02
relative viability (Staurosporine + AZD7762; first compound 0.01581 µM): 0.686
relative viability (Staurosporine + AZD7762; first compound 0.05 µM): 0.78
relative viability (Staurosporine + AZD7762; first compound 0.1581 µM): 0.574
relative viability (Staurosporine + AZD7762; first compound 0.5 µM): 0.219
